# Data reported in patent EP1685120B1, “COLOURING HYDROSOLUBLE YELLOW PREPARATION DERIVED FROM DIHYDROCHALCONES” (INSTITUT NATIONAL DE LA RECHERCHE AGRONOMIQUE, priority 2003, dated 2005).
# “And” between values parts separate entries of the source, which are not always exact repeats. Identical values can stand only once. Like-named read-outs stand apart in the source and are kept apart here.
# Tests used:
# [1] = FRAP method (Ferric Reducing Antioxidant Power), aqueous medium, 10 min incubation (after Pulido et al., 2000); type: biochemical; settings: for TEAC: FRAP, Trolox equivalent, (SD); for EC1: antioxidant concentration with reducing power equivalent to 1 mmol/L FeSO4 7 H2O, 10 min incubation, mean of 3 (SD)
# Method: (§1) Pour comparaison ou pour l'expression des résultats, les capacités antioxydantes des composés suivants ont été également mesurées : vitamine C (acide ascorbique), Trolox (analogue hydrosoluble de la vitamine E), (-)-épicatéchine, et phloridzine.
# Tableau III - Mesure de la capacité antioxydante en milieu aqueux par la méthode FRAP pour 10 minutes d'incubation (d'après Pulido et al., 2000).
# [2] = DPPH method, antioxidant capacity in methanolic medium (after Brand-Williams et al., 1995); type: biochemical; settings: for TEAC (Trolox équivalent antioxidant capacity): DPPH, relative to Trolox; for capacité antioxydante: overall conclusion in words from DPPH and FRAP
# Text: as §1
# Les résultats sont présentés dans les tableaux II et III ci dessous.
# [3] = values of Pulido et al. (2000); cited from earlier work
# [4] = sign only; other natural yellow colourants, source not given; cited from earlier work
# [5] = Molar extinction coefficient (UV-visible); type: physicochemical
# Text: Une solution à 20 ppm de ce composéest jaune intense.
# Le spectre UV-visible d'une solution de préparation POP a été mesuré pour différents pH entre 2 et 8 (voir figure 1). Des mesures de couleur (chromamètre Minolta) ont également été réalisées dans cette zone de pH. Les résultats détaillés des paramètres colorimétriques sont consignés ci-après.
# [6] = Colorimetric parameters CIE L*a*b* (Minolta CM-3600d spectrophotometer) in Mc Ilvaine buffer; type: physicochemical; design: key to L* : luminosité / a* : axe vert-rouge / b* : axe bleu-jaune: CIE L*a*b* coordinates (illuminant D65, 10° observer)
# Text: Les paramètres de coloration du colorant par rapport à de l'eau distillée (référence) ont été mesurés en solution dans un tampon de M^c Ilvaine (citrate-phosphate) à différents pH (2,2 à 8) et ce, pour plusieurs concentrations.
# Les mesures ont été réalisées à l'aide d'un spectrophotomètre Minolta CM-3600d (©1998 Minolta Co., Ltd. Japon) avec la plaque de calibration (Minolta n° 13171008). Le spectrophotomètre équipé d'un logiciel de retraitement SpectraMagic V 3.60G (Cyberchrome Inc Minolta Co. Ltd), a été paramétré pour utiliser l'espace colorimétrique CIE L*a*b (Figure 2), avec l'illuminant D65-10° (D65-A-F2), et l'observateur moyen normalisé 10° CIE 1964 (sensibilité d'un oeil moyen). A partir des valeurs a* et b* nous avons calculé les coordonnées polaires C* = sqrt(((a*))^2 + ((b*))^2) et h = tan g^-1 ((a*)/(b*)) × (180)/(Pi) [formula] Dans la suite du texte nous exploiterons principalement ces coordonnées polaires C* et h, car elles ont chacune une signification colorimétrique : C* est la distance au centre de l'espace et correspond à la saturation de la couleur alors que h est un angle (exprimé ici en degré) qui définit la teinte. A titre indicatif pour la couleur rouge la teinte se situe au voisinage de 0°, pour le jaune environ 90°, pour le vert 180° et pour le bleu 270°. La valeur L* est utilisée telle quelle et exprime la clarté.
# [7] = system: cellules TC-7; assay: Cytotoxicity test, cell viability by neutral red method; type: cell-based; settings: for % Témoin / DO Moyenne: 2 h; for % Témoin: cell viability; for DO Moyenne: mean of 5
# Method: Cellules TC-7 (sous clone de caco-2) cultivées sur nacelles (membrane en polyéthylène téréphtalate), utilisées à 21 jours de confluence, fournie par Bioprédic International
# Emploi des cellules au passage 21.
# Pas de solvant utilisé pour la solubilisation des produits à l'essai.
# Système réactionnel : cultures de cellules TC-7 incubées en présence des produits à l'essai aux différentes concentrations citées ci-dessus.
# Temps d'incubation : 2 heures. [drawing 6] ↑ : incubation des produits à l'essai ? : évaluation des effets Replicate : 5 par concentrations. Température d'incubation : 37°C. Autres conditions : atmosphère humide contenant 5 % de CO2.
# Témoin : correspondant aux cellules incubées en absence de produit à l'essai [drawing 8] Replicate : 10
# Viabilité cellulaire mesurée selon la méthode du rouge neutre après incubation avec les produits à l'essai : • incubation en présence de rouge neutre pendant 3 heures • lyse des cellules et lecture de la densité optique avec un spectrophotomètre à 540 nm (la densité optique du rouge neutre est proportionnelle au nombre de cellules vivantes).
# Expression des résultats : en unités arbitraires de D.O.(densité optique) par échantillon et en pourcentage de variation par rapport au groupe témoin.
# [8] = Optical density at 420 nm of the esterification reaction medium (colouring capacity); type: physicochemical; settings: unpurified POP fraction incubated with acidified alcohol, 50 °C, 1 h
# Text: Le volume d'alcool est ajusté de façon à avoir une concentration finale en fraction POP de 1 g.L^-1. Les alcools suivants ont été testés : méthanol, propanol-1, propanol-2, butanol-1, butanol-3, hexanol-1, octanol-1.
# Confirmation de la conversion en esters : la formation des esters correspondant a été montrée par HPLC couplée à la spectrométrie de masse en mode négatif et avec également en série une détection à 420 nm (jaune). […] Tableau I: Temps de rétention chromatographique, ions pseudo-moléculaires et rendements de conversion du composé de formule I-b-1 et de ses dérivés estérifiés.
# [9] = 5 mg/L, pH 3, tampon de Mc Ilvaine
# [10] = 10 mg/L, pH 3, tampon de Mc Ilvaine
# [11] = 20 mg/L, pH 3, tampon de Mc Ilvaine
# [12] = 40 mg/L, pH 3, tampon de Mc Ilvaine
# [13] = 100 mg/L, pH 3, tampon de Mc Ilvaine
# [14] = pH 2,2, env. 20 mg/L, tampon de Mc Ilvaine
# [15] = pH 3, env. 20 mg/L, tampon de Mc Ilvaine
# [16] = pH 4, env. 20 mg/L, tampon de Mc Ilvaine
# [17] = pH 5, env. 20 mg/L, tampon de Mc Ilvaine
# [18] = pH 6, env. 20 mg/L, tampon de Mc Ilvaine
# [19] = pH 7, env. 20 mg/L, tampon de Mc Ilvaine
# [20] = pH 8, env. 20 mg/L, tampon de Mc Ilvaine
compound,measurement,setting,value
Oc1cc(O)c2c(c1)O[C@H](c1ccc(O)c(O)c1)[C@H](O)C2 [(-)-épicatéchine],TEAC,[1],1.14 (0.03)
same,EC1,[1],359 µmol/L and 359 (11) µmol/L
same,TEAC (Trolox équivalent antioxidant capacity),[2],"1,12"
same,EC1,[3],348
"O=C(O)CCc1cc(O)c(O)cc1-c1c(O)cc(O)cc1C1O[C@H](CO)[C@@H](O)[C@H](O)[C@H]1O (stereo partly drawn) [I-a-1, acide 3-(4,5,4',6'-tetrahydroxy-2'-glucosyl-biphenyl-2-yl)-propionique]",EC1,[1],477 (15) µmol/L
same,TEAC (Trolox équivalent antioxidant capacity),[2],"0,78"
same,"capacité antioxydante, fold over phloridzine",[2]; overall conclusion from DPPH and FRAP,10 fois
same,capacité antioxydante,[2],capacité antioxydante importante
"O=C(CCc1ccc(O)cc1)c1c(O)cc(O)cc1O[C@@H]1O[C@H](CO)[C@@H](O)[C@H](O)[C@H]1O [Phloridzine, phloridzine, reference compound]",TEAC,[1],0.08 (0.00)
same,TEAC (Trolox équivalent antioxidant capacity),[2],"0,09"
same,capacité antioxydante,[2],très faible
Cc1c(C)c2c(c(C)c1O)CCC(C)(C(=O)O)O2 (stereo not drawn) [Trolox],TEAC,[1],1.00 (0.02)
same,EC1,[1],411 µmol/L and 411 (10) µmol/L
same,TEAC (Trolox équivalent antioxidant capacity),[2],"1,00"
same,EC1,[3],322
"O=C1O[C@H]([C@@H](O)CO)C(O)=C1O [Vitamine C, acide ascorbique]",TEAC,[1],1.03 (0.02)
same,EC1,[1],400 (9) µmol/L
same,EC1,[1]; listed as vitamine C,400 µmol/L
same,TEAC (Trolox équivalent antioxidant capacity),[2],"0,98"
same,EC1,[3],392
COc1cc(/C=C/C(=O)CC(=O)/C=C/c2ccc(O)c(OC)c2)ccc1O [curcumine],logP (P coeff. de partage [n-octanol/eau]),[4],positif
O=c1c(O)c(-c2ccc(O)c(O)c2)oc2cc(O)cc(O)c12 [quercétine],logP (P coeff. de partage [n-octanol/eau]),[4],positif
"acide 3-(4'-hydroxy-2'-glucosyl-4,5-dioxo-3,6-dihydro-2H-dibenzofuran-2-yl)-propionique [I-b-1]",coefficient d'extinction molaire,"[5]; 420 nm à pH 3, estimated",17400 mol⁻¹ cm⁻¹
same,coefficient d'extinction molaire ε,[5]; pH 3,17 400 DO.mol^-1.L^-2.cm^-1
same,TEAC (Trolox équivalent antioxidant capacity),[2],"0,09"
same,capacité antioxydante,[2],faible capacité antioxydante
same,L* : luminosité,[6]; [9],"99,6"
same,Teinte CIE,[6]; [9],"3,5"
same,a* : axe vert-rouge,[6]; [9],"-4,6"
same,b* : axe bleu-jaune,[6]; [9],"11,5"
same,L* : luminosité,[6]; [10],"99,3"
same,Teinte CIE,[6]; [10],"6,7"
same,a* : axe vert-rouge,[6]; [10],"-8,5"
same,b* : axe bleu-jaune,[6]; [10],"22,8"
same,L* : luminosité,[6]; [11],"98,7"
same,Teinte CIE,[6]; [11],"11,1"
same,a* : axe vert-rouge,[6]; [11],"-13,6"
same,b* : axe bleu-jaune,[6]; [11],"41,5"
same,L* : luminosité,[6]; [12],"97,9"
same,Teinte CIE,[6]; [12],"14,3"
same,a* : axe vert-rouge,[6]; [12],"-17,7"
same,b* : axe bleu-jaune,[6]; [12],"67,1"
same,L* : luminosité,[6]; [13],"96,5"
same,Teinte CIE,[6]; [13],"10,4"
same,a* : axe vert-rouge,[6]; [13],"-17,8"
same,b* : axe bleu-jaune,[6]; [13],"96,0"
same,L* : luminosité,[6]; [14],"98,7"
same,Teinte CIE,[6]; [14],"11,2"
same,a* : axe vert-rouge,[6]; [14],"-13,5"
same,b* : axe bleu-jaune,[6]; [14],"40,7"
same,L* : luminosité,[6]; [15],"98,5"
same,Teinte CIE,[6]; [15],"11,0"
same,a* : axe vert-rouge,[6]; [15],"-13,4"
same,b* : axe bleu-jaune,[6]; [15],"41,1"
same,L* : luminosité,[6]; [16],"98,4"
same,Teinte CIE,[6]; [16],"10,2"
same,a* : axe vert-rouge,[6]; [16],"-13,2"
same,b* : axe bleu-jaune,[6]; [16],"42,3"
same,L* : luminosité,[6]; [17],"97,5"
same,Teinte CIE,[6]; [17],"5,9"
same,a* : axe vert-rouge,[6]; [17],"-11,4"
same,b* : axe bleu-jaune,[6]; [17],"46,7"
same,L* : luminosité,[6]; [18],"93,5"
same,Teinte CIE,[6]; [18],"-20,5"
same,a* : axe vert-rouge,[6]; [18],"-0,1"
same,b* : axe bleu-jaune,[6]; [18],"57,7"
same,L* : luminosité,[6]; [19],"88,1"
same,Teinte CIE,[6]; [19],"-63,5"
same,a* : axe vert-rouge,[6]; [19],"16,3"
same,b* : axe bleu-jaune,[6]; [19],"71,4"
same,L* : luminosité,[6]; [20],"87,1"
same,Teinte CIE,[6]; [20],"-71,8"
same,a* : axe vert-rouge,[6]; [20],"19,5"
same,b* : axe bleu-jaune,[6]; [20],"72,2"
same,Teinte CIE,[6]; pH inférieur à 5-6 (yellow),10
same,Teinte CIE,[6]; pH supérieurs (orange),-50
same,% Témoin,[7]; 20 µM,101%
same,DO Moyenne,[7]; 20 µM,"0,489"
same,% Témoin,[7]; 100 µM,104%
same,DO Moyenne,[7]; 100 µM,"0,504"
same,% Témoin,[7]; 200 µM,96%
same,DO Moyenne,[7]; 200 µM,"0,467"
same,effet sur la viabilité cellulaire,[7]; 1000 µM,une légère diminution de la viabilité cellulaire
same,% Témoin,[7]; 1000 µM,104%
same,DO Moyenne,[7]; 1000 µM,"0,504"
same,% Témoin,[7]; 2000 µM,93%
same,DO Moyenne,[7]; 2000 µM,"0,448"
same,effet sur la viabilité cellulaire,[7]; at the tested concentrations (20-2000 µM),n'a pas eu d'effet sur la viabilité cellulaire
same,effet sur la viabilité cellulaire,[7]; jusqu'à 200 µM,Aucun effet inhibiteur de référence n'a été noté
same,"DO 420 nm (jaune) du milieu réactionnel dilué à 0,1 g/l",[8],"0,973"
